Laboratory results published in patent publication US11492385B2, “Long-acting co-agonists of the glucagon and GLP-1 receptors” (Merck Sharp & Dohme Corp., priority 2015, dated 2022).
Starred links: 1 amine or outer side, 2 acyl side, 3 side chain; linkers in the order of their positions; H or OH if unused. Non-standard residues stand in square brackets, D forms with d. Residues, ends and D or L forms follow the SMILES beside them. Groups on a side chain read outwards from the residue. *: point of attachment. Phe(4-CH2NH2) = NCc1ccc(C[C@H](N)C(=O)O)cc1; C16 diacid = O=C(O)CCCCCCCCCCCCCCC(=O)*; γGlu = O=C(O)[C@H](CCC(=O)[*:2])N[*:1]; Met(O2) = CS(=O)(=O)CC[C@H](N)C(=O)O; AEEA = NCCOCCOCC(=O)O; Aib = CC(C)(N)C(=O)O

Legend:
human GCGR = molecular target: T1, human GCGR (Homo sapiens, UniProt P47871); assay: cAMP activity assay, cells expressing human GCGR; type: cell-based; details: for EC50: cAMP production, cells expressing human GCGR, assay buffer with or without 20% human serum (not stated which), read-out: GCGR EC50 human; for hGCGR/hGLP1R (hTone): ratio of human GCGR EC50 to human GLP1R EC50
T1 construct: expressed in transfected cells; kept under Blasticidin and Hygromycin selection
T1 sequence (P47871 26-477): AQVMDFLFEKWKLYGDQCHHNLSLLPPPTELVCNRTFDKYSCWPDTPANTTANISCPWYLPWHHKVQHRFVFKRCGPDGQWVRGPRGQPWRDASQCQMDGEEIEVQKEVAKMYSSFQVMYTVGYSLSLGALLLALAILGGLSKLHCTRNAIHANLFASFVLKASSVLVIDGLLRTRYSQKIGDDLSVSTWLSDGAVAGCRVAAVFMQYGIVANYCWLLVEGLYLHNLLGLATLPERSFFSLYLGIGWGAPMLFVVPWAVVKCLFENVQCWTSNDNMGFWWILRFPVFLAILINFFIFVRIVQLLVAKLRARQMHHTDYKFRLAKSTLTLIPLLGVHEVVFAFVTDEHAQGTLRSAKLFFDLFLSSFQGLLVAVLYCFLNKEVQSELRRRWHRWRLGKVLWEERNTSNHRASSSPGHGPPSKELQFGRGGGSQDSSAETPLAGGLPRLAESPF
Procedure, shortened: (§1)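 Peptides as 10-point titrations from DMSO tested on cells expressing human GLP1R or GCGR. cAMP measured by luminescent kit after overnight room-temperature incubation in the dark. EC50 from four-parameter logistic fit; native GLP-1 and glucagon as controls.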

human GLP1R = molecular target: T2, human GLP1R (Homo sapiens, UniProt P43220); assay: cAMP activity assay, cells expressing human GLP1R; type: cell-based; details: cAMP production, assay buffer with or without 20% human serum (not stated which)
T2 construct: expressed in transfected cells; kept under Blasticidin and Hygromycin selection
T2 sequence (P43220 24-463): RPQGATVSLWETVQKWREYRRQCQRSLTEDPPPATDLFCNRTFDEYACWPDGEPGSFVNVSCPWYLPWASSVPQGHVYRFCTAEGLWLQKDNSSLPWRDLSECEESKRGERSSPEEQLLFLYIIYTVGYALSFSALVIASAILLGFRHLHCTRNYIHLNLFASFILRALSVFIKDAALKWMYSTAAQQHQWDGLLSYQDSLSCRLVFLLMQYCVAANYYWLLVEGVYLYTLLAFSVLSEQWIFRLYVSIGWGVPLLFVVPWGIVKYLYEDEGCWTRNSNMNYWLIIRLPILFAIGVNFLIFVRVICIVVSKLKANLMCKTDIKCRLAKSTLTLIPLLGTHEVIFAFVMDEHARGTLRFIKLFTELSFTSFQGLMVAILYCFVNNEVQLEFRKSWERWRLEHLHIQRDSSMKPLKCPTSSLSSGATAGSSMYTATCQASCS
Procedure, shortened: as §1

EC50 (human GCGR) | hGCGR/hGLP1R (hTone) (human GCGR) | EC50 (human GLP1R) | Structure (SMILES)
0.08 nM | 2.15 | 0.04 nM | CC(C)C[C@H](NC(=O)[C@H](Cc1ccc(O)cc1)NC(=O)[C@H](CCCCN)NC(=O)[C@H](CO)NC(=O)[C@H](Cc1ccc(O)cc1)NC(=O)[C@H](CC(=O)O)NC(=O)[C@H](CO)NC(=O)[C@@H](NC(=O)[C@H](Cc1ccccc1)NC(=O)[C@@H](NC(=O)CNC(=O)[C@H](CCC(N)=O)NC(=O)C(C)(C)NC(=O)[C@@H](N)Cc1c[nH]cn1)[C@@H](C)O)[C@@H](C)O)C(=O)N[C@@H](CC(=O)O)C(=O)N[C@@H](C)C(=O)N[C@@H](CCCNC(=N)N)C(=O)N[C@@H](C)C(=O)N[C@@H](C)C(=O)N[C@@H](CCCCNC(=O)COCCOCCNC(=O)COCCOCCNC(=O)CC[C@H](NC(=O)CCCCCCCCCCCCCCC(=O)O)C(=O)O)C(=O)N[C@@H](CC(=O)O)C(=O)N[C@@H](Cc1ccccc1)C(=O)N[C@H](C(=O)N[C@@H](CCC(N)=O)C(=O)N[C@@H](Cc1c[nH]c2ccccc12)C(=O)N[C@@H](CC(C)C)C(=O)N[C@@H](CCS(C)(=O)=O)C(=O)N[C@@H](CC(=O)O)C(=O)N[C@H](C(N)=O)[C@@H](C)O)C(C)C [compound 19] (H-H[Aib]QGTFTSDYSKYLDARAAK([AEEA-AEEA-γGlu-C16 diacid])DFVQWL[Met(O2)]DT-NH2)
0.03 nM | 0.98 | 0.03 nM | CC(C)C[C@H](NC(=O)[C@H](Cc1ccc(O)cc1)NC(=O)[C@H](CCCCN)NC(=O)[C@H](CO)NC(=O)[C@H](Cc1ccc(O)cc1)NC(=O)[C@H](CC(=O)O)NC(=O)[C@H](CO)NC(=O)[C@@H](NC(=O)[C@H](Cc1ccccc1)NC(=O)[C@@H](NC(=O)CNC(=O)[C@H](CCC(N)=O)NC(=O)C(C)(C)NC(=O)[C@@H](N)Cc1c[nH]cn1)[C@@H](C)O)[C@@H](C)O)C(=O)N[C@@H](CC(=O)O)C(=O)N[C@@H](C)C(=O)N[C@@H](CCCNC(=N)N)C(=O)N[C@@H](C)C(=O)N[C@@H](C)C(=O)N[C@@H](CCC(N)=O)C(=O)N[C@@H](CCCCNC(=O)COCCOCCNC(=O)COCCOCCNC(=O)CC[C@H](NC(=O)CCCCCCCCCCCCCCC(=O)O)C(=O)O)C(=O)N[C@@H](Cc1ccccc1)C(=O)N[C@H](C(=O)N[C@@H](CCC(N)=O)C(=O)N[C@@H](Cc1c[nH]c2ccccc12)C(=O)N[C@@H](CC(C)C)C(=O)N[C@@H](CCS(C)(=O)=O)C(=O)N[C@@H](CC(=O)O)C(=O)N[C@H](C(N)=O)[C@@H](C)O)C(C)C [compound 20] (H-H[Aib]QGTFTSDYSKYLDARAAQK([AEEA-AEEA-γGlu-C16 diacid])FVQWL[Met(O2)]DT-NH2)
0.02 nM | 0.08 | 0.29 nM | CC(C)C[C@H](NC(=O)[C@H](Cc1ccc(O)cc1)NC(=O)[C@H](CCCCN)NC(=O)[C@H](CO)NC(=O)[C@H](Cc1ccc(O)cc1)NC(=O)[C@H](CC(=O)O)NC(=O)[C@H](CO)NC(=O)[C@@H](NC(=O)[C@H](Cc1ccccc1)NC(=O)[C@@H](NC(=O)CNC(=O)[C@H](CCC(N)=O)NC(=O)[C@@H](CO)NC(=O)[C@@H](N)Cc1c[nH]cn1)[C@@H](C)O)[C@@H](C)O)C(=O)N[C@@H](CC(=O)O)C(=O)N[C@@H](C)C(=O)N[C@@H](CCCNC(=N)N)C(=O)N[C@@H](C)C(=O)N[C@@H](C)C(=O)N[C@@H](Cc1ccc(CNC(=O)COCCOCCNC(=O)COCCOCCNC(=O)CC[C@H](NC(=O)CCCCCCCCCCCCCCC(=O)O)C(=O)O)cc1)C(=O)N[C@@H](CC(=O)O)C(=O)N[C@@H](Cc1ccccc1)C(=O)N[C@H](C(=O)N[C@@H](CCC(N)=O)C(=O)N[C@@H](Cc1c[nH]c2ccccc12)C(=O)N[C@@H](CC(C)C)C(=O)N[C@@H](CC(C)C)C(=O)N[C@@H](CC(=O)O)C(=O)N[C@H](C(N)=O)[C@@H](C)O)C(C)C [compound 22] (H-H[dS]QGTFTSDYSKYLDARAA[Phe(4-CH2NH2)]([AEEA-AEEA-γGlu-C16 diacid])DFVQWLLDT-NH2)
0.04 nM | 0.14 | 0.27 nM | CC(C)C[C@H](NC(=O)[C@H](Cc1ccc(O)cc1)NC(=O)[C@H](CCCCN)NC(=O)[C@H](CO)NC(=O)[C@H](Cc1ccc(O)cc1)NC(=O)[C@H](CC(=O)O)NC(=O)[C@H](CO)NC(=O)[C@@H](NC(=O)[C@H](Cc1ccccc1)NC(=O)[C@@H](NC(=O)CNC(=O)[C@H](CCC(N)=O)NC(=O)[C@@H](CO)NC(=O)[C@@H](N)Cc1c[nH]cn1)[C@@H](C)O)[C@@H](C)O)C(=O)N[C@@H](CC(=O)O)C(=O)N[C@@H](C)C(=O)N[C@@H](CCCNC(=N)N)C(=O)N[C@@H](C)C(=O)N[C@@H](C)C(=O)N[C@@H](CCC(N)=O)C(=O)N[C@@H](Cc1ccc(CNC(=O)COCCOCCNC(=O)COCCOCCNC(=O)CC[C@H](NC(=O)CCCCCCCCCCCCCCC(=O)O)C(=O)O)cc1)C(=O)N[C@@H](Cc1ccccc1)C(=O)N[C@H](C(=O)N[C@@H](CCC(N)=O)C(=O)N[C@@H](Cc1c[nH]c2ccccc12)C(=O)N[C@@H](CC(C)C)C(=O)N[C@@H](CC(C)C)C(=O)N[C@@H](CC(=O)O)C(=O)N[C@H](C(N)=O)[C@@H](C)O)C(C)C [compound 23] (H-H[dS]QGTFTSDYSKYLDARAAQ[Phe(4-CH2NH2)]([AEEA-AEEA-γGlu-C16 diacid])FVQWLLDT-NH2)
0.78 nM | 4.76 | 0.37 nM | CC(C)C[C@H](NC(=O)[C@H](Cc1ccc(O)cc1)NC(=O)[C@H](Cc1ccc(CNC(=O)COCCOCCNC(=O)COCCOCCNC(=O)CC[C@H](NC(=O)CCCCCCCCCCCCCCC(=O)O)C(=O)O)cc1)NC(=O)[C@H](CO)NC(=O)[C@H](Cc1ccc(O)cc1)NC(=O)[C@H](CC(=O)O)NC(=O)[C@H](CO)NC(=O)[C@@H](NC(=O)[C@H](Cc1ccccc1)NC(=O)[C@@H](NC(=O)CNC(=O)[C@H](CCC(N)=O)NC(=O)[C@@H](CO)NC(=O)[C@@H](N)Cc1c[nH]cn1)[C@@H](C)O)[C@@H](C)O)C(=O)N[C@@H](CC(=O)O)C(=O)N[C@@H](CCC(=O)O)C(=O)N[C@@H](CCCNC(=N)N)C(=O)N[C@@H](C)C(=O)N[C@@H](C)C(=O)N[C@@H](CCC(N)=O)C(=O)N[C@@H](CC(=O)O)C(=O)N[C@@H](Cc1ccccc1)C(=O)N[C@H](C(=O)N[C@@H](CCC(N)=O)C(=O)N[C@@H](Cc1c[nH]c2ccccc12)C(=O)N[C@@H](CC(C)C)C(=O)N[C@@H](CCS(C)(=O)=O)C(=O)N[C@@H](CC(=O)O)C(=O)N[C@H](C(N)=O)[C@@H](C)O)C(C)C [compound 24] (H-H[dS]QGTFTSDYS[Phe(4-CH2NH2)]([AEEA-AEEA-γGlu-C16 diacid])YLDERAAQDFVQWL[Met(O2)]DT-NH2; N-terminus assumed)
0.32 nM | 14.00 | 0.02 nM | CC(C)C[C@H](NC(=O)[C@H](Cc1c[nH]c2ccccc12)NC(=O)[C@H](CCC(N)=O)NC(=O)[C@@H](NC(=O)[C@H](Cc1ccccc1)NC(=O)[C@H](CC(=O)O)NC(=O)[C@H](CCC(N)=O)NC(=O)[C@H](C)NC(=O)[C@H](C)NC(=O)[C@H](CCCNC(=N)N)NC(=O)C(C)(C)NC(=O)[C@H](CC(=O)O)NC(=O)[C@H](CC(C)C)NC(=O)[C@H](Cc1ccc(O)cc1)NC(=O)[C@H](Cc1ccc(CNC(=O)COCCOCCNC(=O)COCCOCCNC(=O)CC[C@H](NC(=O)CCCCCCCCCCCCCCC(=O)O)C(=O)O)cc1)NC(=O)[C@H](CO)NC(=O)[C@H](Cc1ccc(O)cc1)NC(=O)[C@H](CC(=O)O)NC(=O)[C@H](CO)NC(=O)[C@@H](NC(=O)[C@H](Cc1ccccc1)NC(=O)[C@@H](NC(=O)CNC(=O)[C@H](CCC(N)=O)NC(=O)C(C)(C)NC(=O)[C@@H](N)Cc1c[nH]cn1)[C@@H](C)O)[C@@H](C)O)C(C)C)C(=O)N[C@@H](CCS(C)(=O)=O)C(=O)N[C@@H](CC(=O)O)C(=O)N[C@H](C(N)=O)[C@@H](C)O [compound 25] (H-H[Aib]QGTFTSDYS[Phe(4-CH2NH2)]([AEEA-AEEA-γGlu-C16 diacid])YLD[Aib]RAAQDFVQWL[Met(O2)]DT-NH2)
0.52 nM | 4.68 | 0.11 nM | CC(C)C[C@H](NC(=O)[C@H](Cc1ccc(O)cc1)NC(=O)[C@H](CCCCN)NC(=O)[C@H](CO)NC(=O)[C@H](Cc1ccc(O)cc1)NC(=O)[C@H](CC(=O)O)NC(=O)[C@H](CO)NC(=O)[C@@H](NC(=O)[C@H](Cc1ccccc1)NC(=O)[C@@H](NC(=O)CNC(=O)[C@H](CCC(N)=O)NC(=O)C(C)(C)NC(=O)[C@@H](N)Cc1c[nH]cn1)[C@@H](C)O)[C@@H](C)O)C(=O)N[C@@H](CC(=O)O)C(=O)N[C@@H](CCC(=O)O)C(=O)N[C@@H](CCCNC(=N)N)C(=O)N[C@@H](C)C(=O)N[C@@H](C)C(=O)N[C@@H](Cc1ccc(CNC(=O)COCCOCCNC(=O)COCCOCCNC(=O)CC[C@H](NC(=O)CCCCCCCCCCCCCCC(=O)O)C(=O)O)cc1)C(=O)N[C@@H](CC(=O)O)C(=O)N[C@@H](Cc1ccccc1)C(=O)N[C@H](C(=O)N[C@@H](CCC(N)=O)C(=O)N[C@@H](Cc1c[nH]c2ccccc12)C(=O)N[C@@H](CC(C)C)C(=O)N[C@@H](CC(C)C)C(=O)N[C@@H](CCCCN)C(=O)N[C@H](C(N)=O)[C@@H](C)O)C(C)C [compound 26] (H-H[Aib]QGTFTSDYSKYLDERAA[Phe(4-CH2NH2)]([AEEA-AEEA-γGlu-C16 diacid])DFVQWLLKT-NH2)
